Assay results published in a melting point compilation (Tetko et al.; mined from patent text by program, amines drawn as free bases though some values may be those of a salt).

SMILES | melting point [°C]
CC(C(N)=O)c1ccc(Oc2ccc(F)cc2F)cc1 (centres undefined) | 107 to 110
CCc1cnc(N2CCN(C(=O)c3ccccc3NC3(c4ccccc4)NC=Nc4ccccc43)CC2)nc1 (centres undefined) | > 250
CCOC1(NC(=O)c2ccccc2)CC1 | 108 to 109
CCOC(=O)c1cc(S(=O)(=O)N2CCN(CC)CC2)cnc1OCC | 66 to 68
CC(C)(C)OC(=O)CN1C(=O)SC(Cc2ccc(N3CCC(NCC(O)c4ccc(O)c(NS(C)(=O)=O)c4)CC3)cc2)C1=O (centres undefined) | 130 to 132
CCn1c(=O)c2[nH]c(/C=C/c3ccc(F)c(Cl)c3)nc2n(CC)c1=O | > 270
CS(=O)(=O)c1ccc(-c2cnn3c(O)ncnc23)cc1 | > 300
N#CCC(=O)c1nn(-c2ccccc2)c2c1COc1c(CN3CCOCC3)cc(F)cc1-2 | 187 to 189
c1cc(OCCCCc2nnn[nH]2)cc(OCc2ccc3ccccc3n2)c1 | 120 to 130
CC(=O)c1c(-c2ccc(F)cc2)sc(-c2ccncc2)c1C | 116 to 118
CN(C)C(=O)Cn1c(-c2ccc(Br)cc2)nc2cccnc21 | 224 to 225
C=CCNc1c(C(=O)O)cnc2cn[nH]c12 | 240 to 242
CC(C)CC(NC(=O)C(Cc1c[nH]cn1)NC(=O)C(CC(=O)N1CCCCC1)Cc1cccc2ccccc12)C(O)C(=O)OC(C)C (mixture of isomers) | 91 to 97
Cc1cc(NC(=O)c2cccc(CSc3cnccn3)c2)ccc1C(C)C | 69 to 73
CCc1cc(C=O)ccc1N=C1SCC2(CCCC2)N1C1CCCC1 | 104 to 105
CC(=O)Nc1ccn2nc(-c3ccccc3)c(-c3ccc(=O)n(C(C)C)n3)c2c1 | 221 to 222
CCCOCCOc1ccc(-c2ccc3c(c2)C=C(C(=O)O)CCN3CCCOCC)cc1 | 98 to 100
CC(C)c1ccccc1-n1c(=O)[nH]c2c(C(N)=O)nc(-c3ccc(-c4nc[nH]n4)cc3)nc21 | 368
CC(C)c1cc(-c2ccc3c(c2)OCO3)nc2[nH]nc(N)c12 | 184 to 186
COC(=O)c1c(Cc2ccc(C(=O)NC3CCC(O)CC3)cc2)c(=O)c2ccc(Cl)cc2n1-c1ccccc1 (centres undefined) | 151 to 152
CCOC(=O)c1[nH]c2cc(Cl)cc(Cl)c2c1I | 218 to 220
COc1ccc(CN2C(=O)[C@@H](NC(=O)Cc3ccccc3)[C@H]2COS(=O)(=O)c2ccc(C)cc2)c(OC)c1 (relative stereo) | 109 to 110
COc1cc(N)c(Cl)cc1C(=O)NCC1CCN(CCCCCOCc2ccc(Cl)cc2)CC1 | 131 to 132

SMILES | melting point [°C]
COCCc1nc2c(N)nc3cc(-c4cncc(CO)c4)ccc3c2n1CC(C)(C)O | 210 to 211
Cc1cn(C(C)(C)C(=O)N(C)C)nc1-c1ccccc1C#N | 124 to 126
Nc1ccc(Oc2cccc(Oc3ccc(N)c(O)c3)c2)cc1O | 171 to 174
CCOCc1nc2c(N)nc3ccccc3c2n1CCCC(C)=NO | 220 to 223
CCOC(=O)c1nc(N)sc1C(=O)C(C)Br (centres undefined) | 158 to 160
O=C(CC1CC2CCC1C2)NCC1CCN(c2ncccn2)CC1 (centres undefined) | 121 to 126
COc1ccc(CC(C)NCC(O)c2cccc(Cl)c2)cc1F (centres undefined) | 93 to 95
CC1C=C(Nc2ccc(OC(F)(F)F)cc2)N(C)N1 (centres undefined) | 80 to 82
C#CCN(Cc1ccc2nc(C)[nH]c(=O)c2c1)c1ccc(C(=O)NC(COC(C)=O)c2cccc([N+](=O)[O-])c2)cc1 (centres undefined) | 133 to 135
CCCn1nnn(-c2cc(OCC(=O)O)c(Cl)cc2Cl)c1=O | 134 to 136
O=C(Nc1ccc(C#CC2(O)CN3CCC2CC3)cc1)C(F)(F)F (centres undefined) | 222 to 223
CN1C(=O)CC(c2ccccc2)C1C(O)C#Cc1ccccc1 (centres undefined) | 152 to 153
Cc1c(N2CC(COC(=O)C(C)C)C(COC(=O)C(C)C)C2)c(F)cc2c(=O)c(C(=O)O)cn(C3CC3)c12 (centres undefined) | 141 to 143
Cc1cnc(CNC(=O)c2sc(N3CCN(Cc4ccc(C(F)(F)F)cc4)C3=O)nc2C)cn1 | 172 to 173
CC(=O)c1ccccc1-c1cccc(-n2cnc(-c3nc(C)no3)c2)c1 | 144 to 146
Cc1ccc(C#N)c(Sc2ccc(F)cc2)c1 | 93 to 96
FC(F)(F)Oc1ccc2[nH]c(S)nc2c1 | 305 to 307
NC(=O)C1(c2ccn(C(CC(=O)OCc3ccccc3)C(=O)NC(CO)Cc3ccccc3)c2)C=CC(c2ccccc2)=CC1 (centres undefined) | 192 to 194
CC(C)Oc1cc(-n2nc(C(F)(F)F)n(C)c2=O)c(Cl)cc1Cl | 96 to 98
Nc1ccc(SC2=CCCCC2)cc1[N+](=O)[O-] | 93 to 95
Cc1noc(CCCCCCCOc2ccc(C3=NCCO3)cc2Cl)c1CO | 53 to 54
CC(=O)N1CCc2cc(Cl)ccc21 | 115 to 116
CCCCn1c(=O)c(N)c(C)n(CCC(C)C)c1=O | 68 to 70

SMILES | melting point [°C]
CNC(=O)C(C)(C)CCCCC1(CCCCC(C)(C)C(=O)NC)SCCCS1 | 104 to 106
COC(=O)C=C(NC1C=CC=CC1(F)NC(=CC(=O)OC)C(=O)OC)C(=O)OC (centres undefined) | 170 to 174
CCOCCOCCOCCOc1cc(OCCCCCCCCCCCCOc2ccccc2)cc(N(CC(=O)OC)CC(=O)OC)c1 | < 24
O=C1C(CC23CC(c4ccccc42)c2ccccc23)OCCN1Cc1ccccc1 (centres undefined) | 155 to 156
Cc1c(C(=O)Cl)ccc2c1C(=O)N(C)S2(=O)=O | 149 to 150
CCOC(=O)Cc1nn(Cc2nc3cc(Br)ccc3s2)c(=O)c2ccccc12 | 160 to 161
COC(=O)c1c(-c2ccc(Cl)cc2)ccnc1Sc1nc(OC)cc(OC)n1 | 138 to 142
CC(O)C#CC1(O)C(C)C=CCC1(C)C (centres undefined) | 101 to 104
O=C1OC(Br)c2cc(Br)ccc21 (centres undefined) | 100
O=C1OC(O)c2c1cccc2[N+](=O)[O-] (centres undefined) | 153 to 156
CCCc1c(C(=O)OCC)c2c3c(ccc2n1C)OC1c2ccc(SC)cc2CCN1C3 (centres undefined) | 139 to 143
CCOC(OCC)c1ccc(C(O)(c2ccc3nc(OC)cc(-c4cccc(Cl)c4)c3c2)c2cncn2C)cc1 (centres undefined) | 80
CC(=O)Nc1ccc(SC2OC(CO)C(O)C(O)C2O)cc1 (centres undefined) | 160 to 163
O=c1ccc2c(O)cccc2o1 | 224 to 225
Sc1ccc2ccncc2c1Cl | 118 to 122
O=C(NOCCO)c1ccc(F)cc1Nc1ccc(I)cc1F | 117 to 119
COc1cc(Cc2cnc(N)nc2N)cc(-c2ccc(CO)cc2)c1OC | 86
COc1ccc(C(=O)Nc2ccc(F)cc2)cc1N | 164 to 167
Cc1cccc(NC(=O)NC2N=C(C3CCCCC3)c3ccccc3N(Cc3ccccn3)C2=O)c1 (centres undefined) | 157 to 163
COc1ccc(Cl)cc1S(=O)(=O)N(C)c1ccccc1 | 88 to 89
Cc1ccc(S(=O)(=O)N2CCC[C@H]2C(=O)N[C@@H](Cc2ccccc2)C(=O)NOCc2ccccc2)cc1 | 127 to 130
CC(C)(C)n1nc(-c2ccc(Cl)cc2)c2c(N)c(C#N)cnc21 | 213 to 215
Cc1c(CC(c2ccccc2)c2ccccc2)ncn1C(c1ccccc1)(c1ccccc1)c1ccccc1 | 205 to 206
